Results from US20260000656A1, “ANTIFUNGAL AGENTS WITH ENHANCED ACTIVITY IN ACIDIC PH” (Scynexis, Inc., priority 2017, published 2026).
Converted amounts (≈) assume the structure as drawn. Where two headings read alike, the source gives them in different places.

System: C. glabrata isolates
Assay: Broth microdilution susceptibility (CLSI M27-A3) at different medium pH
Format: cell-based, Candida glabrata
Settings: for MIC50 / MIC90 / MIC: Nakaseomyces glabratus, 24 h; for MIC50: read-out: MIC50; for MIC90: read-out: MIC90
Protocol: Ten strains each of C. glabrata and C. albicans vaginal isolates were tested. The strains were obtained from recent clinical trial patients with vulvovaginal candidiasis (VVC) prior to treatment. Candida strains were obtained from the Mycology Reference Library (MRL) at Case Western Reserve University School of Medicine, Ohio, United States.
Susceptibility testing was performed using a broth microdilution method, according to CLSI M27-A3 guidelines (CLSI. 2008. Reference Method for Broth Dilution Antifungal Susceptibility Testing of Yeasts; Approved Standard—Third Edition. Clinical and Laboratory Standards Institute, CLSI document M27-A3). Antifungals and concentrations tested were SCY-078 and micafungin (both at concentrations within the range of 0.015 to 8 μg/ml) and fluconazole (at concentrations within the range of 0.125 to 64 μg/ml). A 0.1-ml C. albicans and C. glabrata inoculum of 0.5-2.5×10^3 blastospores/ml in RPMI 1640 medium was added to each microdilution well. ATCC strains of Candida parapsilosis and Candida krusei QC isolates were also included concurrently to ensure quality control. Antifungal susceptibility testing was carried out for each isolate in RPMI 1640 at pH 7 (to mimic RPMI medium used in testing the susceptibility of yeast by the CLSI M-27A3 document), pH 5.7, and pH 4.5 (to mimic the pH of the vaginal cavity) by adjusting the pH of the media using NaOH or HCl. […] Agents Chemother., 43: 1383-1386 (1999).
[…] SCY-078 powder was manufactured by Avista, Laboratories, NC. Micafungin and fluconazole were sourced from LGM Pharma.

[1] = pH 4.5, 50% inhibition, pH 4.5, 24 h, 10 vaginal isolates
[2] = pH 4.5, 100% inhibition, pH 4.5, 24 hours, 10 isolates
[3] = pH 5.72, 50% inhibition, pH 5.72, 24 h, 10 vaginal isolates
[4] = pH 5.72, 100% inhibition, pH 5.72, 24 hours, 10 isolates

CC(C)[C@@H](C)[C@@]1(C)CC[C@]2(C)[C@H]3CC[C@@H]4[C@@]5(COC[C@]4(C)[C@@H](OC[C@](C)(N)C(C)(C)C)[C@H](n4ncnc4-c4ccncc4)C5)C3=CC[C@@]2(C)[C@@H]1C(=O)O [SCY-078]
MIC range (50% inhibition, pH 4.5, 24 h, 10 vaginal isolates): 0.031 to 0.063 µg/mL
MIC range (50% inhibition, pH 5.72, 24 h, 10 vaginal isolates): 0.5 µg/mL (≈ 0.685 µM)
MIC range (50% inhibition, pH 7.0, 24 h, 10 vaginal isolates): 0.5 to 1 µg/mL
MIC range (100% inhibition, pH 4.5, 24 hours, 10 isolates): 0.063 to 0.125 µg/mL
MIC range (100% inhibition, pH 5.72, 24 hours, 10 isolates): 1 µg/mL (≈ 1.37 µM)
MIC range (100% inhibition, pH 7.0, 24 hours, 10 isolates): 1 to 2 µg/mL
reduction in MIC50 at pH 4.5 compared to the MIC50 at pH 7.0 (C. glabrata isolates): 16 fold
MIC50 [1]: 0.063 µg/mL (≈ 0.0863 µM)
MIC90 [1]: 0.063 µg/mL (≈ 0.0863 µM)
MIC50 [2]: 0.125 µg/mL (≈ 0.171 µM)
MIC90 [2]: 0.125 µg/mL (≈ 0.171 µM)
MIC (pH 4.5, C. glabrata MRL 32075, pH 4.5, 24 hours, read-out: MIC (50% inhibition)): 0.063 µg/mL (≈ 0.0863 µM)
MIC (pH 4.5, C. glabrata MRL 32075, pH 4.5, 24 hours, read-out: MIC (100% inhibition)): 0.125 µg/mL (≈ 0.171 µM)
MIC (pH 4.5, C. glabrata MRL 32232, pH 4.5, 24 hours, read-out: MIC (50% inhibition)): 0.063 µg/mL (≈ 0.0863 µM)
MIC (pH 4.5, C. glabrata MRL 32232, pH 4.5, 24 hours, read-out: MIC (100% inhibition)): 0.125 µg/mL (≈ 0.171 µM)
MIC (pH 4.5, C. glabrata MRL 32626, pH 4.5, 24 hours, read-out: MIC (50% inhibition)): 0.063 µg/mL (≈ 0.0863 µM)
MIC (pH 4.5, C. glabrata MRL 32626, pH 4.5, 24 hours, read-out: MIC (100% inhibition)): 0.125 µg/mL (≈ 0.171 µM)
MIC (pH 4.5, C. glabrata MRL 32993, pH 4.5, 24 hours, read-out: MIC (50% inhibition)): 0.031 µg/mL (≈ 0.0425 µM)
MIC (pH 4.5, C. glabrata MRL 32993, pH 4.5, 24 hours, read-out: MIC (100% inhibition)): 0.063 µg/mL (≈ 0.0863 µM)
MIC (pH 4.5, C. glabrata MRL 33204, pH 4.5, 24 hours, read-out: MIC (50% inhibition)): 0.031 µg/mL (≈ 0.0425 µM)
MIC (pH 4.5, C. glabrata MRL 33204, pH 4.5, 24 hours, read-out: MIC (100% inhibition)): 0.063 µg/mL (≈ 0.0863 µM)
MIC (pH 4.5, C. glabrata MRL 33960, pH 4.5, 24 hours, read-out: MIC (50% inhibition)): 0.031 µg/mL (≈ 0.0425 µM)
MIC (pH 4.5, C. glabrata MRL 33960, pH 4.5, 24 hours, read-out: MIC (100% inhibition)): 0.063 µg/mL (≈ 0.0863 µM)
MIC (pH 4.5, C. glabrata MRL 33961, pH 4.5, 24 hours, read-out: MIC (50% inhibition)): 0.063 µg/mL (≈ 0.0863 µM)
MIC (pH 4.5, C. glabrata MRL 33961, pH 4.5, 24 hours, read-out: MIC (100% inhibition)): 0.063 µg/mL (≈ 0.0863 µM)
MIC (pH 4.5, C. glabrata MRL 34339, pH 4.5, 24 hours, read-out: MIC (50% inhibition)): 0.063 µg/mL (≈ 0.0863 µM)
MIC (pH 4.5, C. glabrata MRL 34339, pH 4.5, 24 hours, read-out: MIC (100% inhibition)): 0.125 µg/mL (≈ 0.171 µM)
MIC (pH 4.5, C. glabrata MRL 34407, pH 4.5, 24 hours, read-out: MIC (50% inhibition)): 0.063 µg/mL (≈ 0.0863 µM)
MIC (pH 4.5, C. glabrata MRL 34407, pH 4.5, 24 hours, read-out: MIC (100% inhibition)): 0.125 µg/mL (≈ 0.171 µM)
MIC (pH 4.5, C. glabrata MRL 34576, pH 4.5, 24 hours, read-out: MIC (50% inhibition)): 0.063 µg/mL (≈ 0.0863 µM)
MIC (pH 4.5, C. glabrata MRL 34576, pH 4.5, 24 hours, read-out: MIC (100% inhibition)): 0.125 µg/mL (≈ 0.171 µM)
MIC50 [3]: 0.5 µg/mL (≈ 0.685 µM)
MIC90 [3]: 0.5 µg/mL (≈ 0.685 µM)
MIC50 [4]: 1 µg/mL (≈ 1.37 µM)
MIC90 [4]: 1 µg/mL (≈ 1.37 µM)
MIC (pH 5.72, C. glabrata MRL 32075, pH 5.72, 24 hours, read-out: MIC (50% inhibition)): 0.5 µg/mL (≈ 0.685 µM)
MIC (pH 5.72, C. glabrata MRL 32075, pH 5.72, 24 hours, read-out: MIC (100% inhibition)): 1 µg/mL (≈ 1.37 µM)
MIC (pH 5.72, C. glabrata MRL 32232, pH 5.72, 24 hours, read-out: MIC (50% inhibition)): 0.5 µg/mL (≈ 0.685 µM)
MIC (pH 5.72, C. glabrata MRL 32232, pH 5.72, 24 hours, read-out: MIC (100% inhibition)): 1 µg/mL (≈ 1.37 µM)
MIC (pH 5.72, C. glabrata MRL 32626, pH 5.72, 24 hours, read-out: MIC (50% inhibition)): 0.5 µg/mL (≈ 0.685 µM)
